Each structure is given as a SMILES string.

The target of one experiment is KRAS G12V-BRAF complex (Homo sapiens (Human), UniProt P01116+P62937, G12V). Nature of the experiment: KRAS G12V-BRAF with CYPA interaction assay (TR-FRET, selectivity test, Example 132). It is filed as biochemical. On the procedure: (§1) In this example, TR-FRET was used to measure the compound or compound-CYPA dependent disruption of the KRAS G12V-BRAF complex to assess inhibition efficacy. The IC50 ratio between WT KRAS/HRAS/NRAS and KRAS G12V mutant was calculated as selective index, which indicated tolerability and safety profile. Disruption of WT KRAS/HRAS/NRAS-BRAF complex by compounds was detected respectively. In assay buffer containing 25 mM HEPES (PH-7.4,4-(2-hydroxyethyl)-1-piperazineethanesulfonic acid, Thermo, 15630080), 0.002% Tween20, 0.1% BSA, 100 mM NaCl, 5 mM MgCl2, 10 μM GMPPNP (Guanosine 5′-[β,γ-imido]triphosphate trisodium salt hydrate, Sigma, G0635), tagless CYPA and GMPPNP loaded 6His-RAS proteins, and GST-BRAF^RBD were mixed in a well of a 384-well assay plate at final concentrations of 50 nM, 6.25 nM and 1 nM, respectively. Compound was present in plate wells as a 16-point 3-fold dilution series starting at a final concentration of 10 μM and incubated for 3 hours. A mixture of MAb Anti-6His-XL665 (Cisbio, 61HISXLB) and Mab anti-GST-TB cryptate (Cisbio, 61GSTTLB) was then added at a final concentration of 6.67 nM and 0.21 nM, respectively, and the plate was incubated for an additional 1.5 hours. TR-FRET signal was read on a PHERstar FSX microplate reader (Ex320 nm, Em 665/615 nm). Compounds that facilitate disruption of the RAS-BRAF complex were identified as those eliciting a decrease in the TR-FRET ratio relative to DMSO control wells.
KRAS G12V-BRAF complex, sequence (P01116-2 other isoform, or with tags, fused parts or gaps G12V): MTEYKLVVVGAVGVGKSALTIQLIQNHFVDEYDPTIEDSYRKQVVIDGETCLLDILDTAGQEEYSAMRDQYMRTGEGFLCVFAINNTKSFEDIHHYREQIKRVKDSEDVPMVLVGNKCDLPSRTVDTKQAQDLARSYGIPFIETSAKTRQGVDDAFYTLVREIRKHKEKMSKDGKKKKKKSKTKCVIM
KRAS G12V-BRAF complex, sequence (P62937 whole entry): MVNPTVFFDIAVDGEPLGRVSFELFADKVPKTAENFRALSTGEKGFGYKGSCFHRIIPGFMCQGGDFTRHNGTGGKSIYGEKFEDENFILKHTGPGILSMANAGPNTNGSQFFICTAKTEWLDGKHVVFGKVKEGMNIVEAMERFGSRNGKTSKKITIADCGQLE

The target of another experiment is WT HRAS-BRAF complex (Homo sapiens (Human), UniProt P01112+P62937). Nature of the experiment: WT HRAS-BRAF with CYPA interaction assay (TR-FRET). The settings on record: WT HRAS. In kind it is biochemical. On the procedure:
as §1

In a further experiment the target is WT KRAS-BRAF complex (Homo sapiens (Human), UniProt P01116+P62937). Nature of the experiment: WT KRAS-BRAF with CYPA interaction assay (TR-FRET). It is filed as biochemical. The settings on record: WT KRAS. On the procedure:
as §1

Experiment [1] relates to NCI-H358 cells (KRAS G12C). Nature of the experiment: Cell viability assay (Cell Counting Kit-8, 3-day). It is filed as cell-based, human. The settings on record: Homo sapiens, NCI-H358, 72 h, NCI-H358, 72 hrs incubation. An outline of the steps:
(§2)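 Seed NCI-H358 5,000/well, AGS and SW620 2,000/well; overnight. Compound, 0.5% DMSO final, 72 hrs. CCK-8 2 hrs, OD450–OD650. IC50: 4-parameter fit.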
For orientation: Tetrazolium dyes change colour on reduction, which living cells bring about.

Another experiment concerns AGS cells (KRAS G12D). Nature of the experiment: Cell viability assay (Cell Counting Kit-8, 3-day). The settings on record: Homo sapiens, 72 h, 72 hrs incubation. In kind it is cell-based, human. An outline of the steps: as §2
The next experiment concerns SW620 cells (KRAS G12V). Nature of the experiment: Cell viability assay (Cell Counting Kit-8, 3-day). The settings on record: Homo sapiens, SW-620; SW620, 72 hrs incubation. It is filed as cell-based, human. An outline of the steps:
as §2

Another experiment addresses KRAS G12C-BRAF complex (Homo sapiens (Human), UniProt P01116+P62937, G12C). Nature of the experiment: KRAS-BRAF with CYPA (500 nM) interaction assay (TR-FRET, Example 136). In kind it is biochemical. The settings on record: KRAS G12C-BRAF disruption. Background: TR-FRET usually uses a lanthanide donor and a delayed reading to cut background.
Another experiment has as its system DUSP6. Nature of the experiment: Brain metastasis intracranial model, PD (DUSP6 in brain, qPCR). In kind it is in vivo, mouse. The settings on record: 30 mg/kg once daily for 14 days, 6 hours post last dose, NCI-H1373-Luc model. On the procedure:
Example 24, formulated in 10% DMSO, 10% Solutol HS15, 80% water, was dosed orally to 7-9 weeks female BALB/c nude mice (Vital River Co., LTD.) in […] at 30 mg/kg (dosing volume of 10 ml/kg) once daily for 14 days. Terminal tissue and blood harvest was performed at 6 hours after post last dose of test articles, using 4 mice per group. In brief, whole blood was collected into K2-EDTA tubes and subjected to centrifugation to separate plasma. Brains were collected, rinsed, and homogenized. Mice Brain were analyzed using qPCR using DUSP6 and ACTB TaqMan probes (ABI-4369016, ABI-4351370). All the targets mRNA expression levels were normalized to the housekeeping gene, and the data were represented as fold-changes according to the 2-ΔΔCt method, where […] and ΔΔCt=ΔCt treatment-ΔCt reference, ΔCt reference was chosen as the vehicle group. The data were interpreted by GraphPad Prism, and statistical analysis of difference in the each targets mRNA expression among the groups were conducted. For comparison between two groups, an independent sample t-test will be used. For comparison among three or more groups, a one-way ANOVA (Dunnett's multiple comparisons test) will be performed, p<0.05 was considered to be statistically significant.

The test system of the next experiment is WT NRAS-BRAF complex. Nature of the experiment: WT NRAS-BRAF with CYPA interaction assay (TR-FRET). It is filed as biochemical. The method, then:
as §1

WT HRAS-BRAF complex, sequence (P01112 whole entry, looked up): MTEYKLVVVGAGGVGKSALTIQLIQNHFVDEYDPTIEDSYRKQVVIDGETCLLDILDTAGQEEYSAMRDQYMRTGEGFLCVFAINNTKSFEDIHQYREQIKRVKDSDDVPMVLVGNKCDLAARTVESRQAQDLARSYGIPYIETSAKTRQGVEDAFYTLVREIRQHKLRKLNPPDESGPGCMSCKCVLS
WT HRAS-BRAF complex, sequence (P62937 whole entry, looked up): as the sequence (P62937 whole entry) above
WT KRAS-BRAF complex, sequence (P01116-2 whole entry, looked up): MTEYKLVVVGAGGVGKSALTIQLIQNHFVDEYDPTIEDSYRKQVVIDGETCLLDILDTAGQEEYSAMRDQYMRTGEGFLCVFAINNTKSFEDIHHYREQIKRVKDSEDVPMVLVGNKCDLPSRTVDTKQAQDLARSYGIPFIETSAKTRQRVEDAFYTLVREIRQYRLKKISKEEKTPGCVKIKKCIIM
WT KRAS-BRAF complex, sequence (P62937 whole entry, looked up): as the sequence (P62937 whole entry) above
KRAS G12C-BRAF complex, sequence (P01116-2 other isoform, or with tags, fused parts or gaps G12C): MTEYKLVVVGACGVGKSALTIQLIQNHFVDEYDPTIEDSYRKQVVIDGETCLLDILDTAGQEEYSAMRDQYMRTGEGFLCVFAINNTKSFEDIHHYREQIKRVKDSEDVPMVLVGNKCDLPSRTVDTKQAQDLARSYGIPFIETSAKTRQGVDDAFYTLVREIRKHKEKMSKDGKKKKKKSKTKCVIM
KRAS G12C-BRAF complex, sequence (P62937 whole entry): as the sequence (P62937 whole entry) above

As for `CCn1c(-c2cc(N3CCN(C)CC3)cnc2[C@H](C)OC)c2c3cc(ccc31)-c1csc(n1)C[C@H](NC(=O)[C@H]1C[C@@H]1C)C(=O)N1CCC[C@H](N1)C(=O)OCC(C)(C)O2` [Example A122, reference compound], the IC50 at KRAS G12V-BRAF complex amounted to 8 nM; against WT HRAS-BRAF complex, 10 nM; against WT KRAS-BRAF complex it was 16 nM.

Regarding `CO[C@@H](C)c1ncc(N2CCN(C)CC2)cc1-c1c2c3cc(cc4c3n1CCC4)-c1csc(n1)C[C@H](NC(=O)[C@H]1[C@H](C)[C@@H]1C)C(=O)N1CCC[C@H](N1)C(=O)OCC(C)(C)C2` (atropisomer, axis not shown; (M)) [Example 24, (1r,2R,3S)-N-[(7S,13S)-(20M)-20-[2-[(1S)-1-methoxyethyl]-5-(4-methylpiperazin-1-yl)-3-pyridyl]-17,17-dimethyl-8,14-dioxo-15-oxa-4-thia-9,21,30,31-tetrazahexacyclo[23.3.1.1^2,5.1^9,13.0^19,27.0^21,26]hentriaconta-1 (28),2,5 (31), 19,25 (29),26-hexaen-7-yl]-2,3-dimethyl-cyclopropanecarboxamide], the IC50 against KRAS G12V-BRAF complex came to 7 nM; in experiment [1] it was 1.3 nM; in the experiment on AGS cells (KRAS G12D), 4.7 nM; in the experiment with SW620 cells (KRAS G12V) it was 0.3 nM; on KRAS G12C-BRAF complex, 9.7 nM; against WT HRAS-BRAF complex it was 38 nM. Moreover, half-maximal inhibition on WT KRAS-BRAF complex (IC50) was put at 32 nM. The “MAPK activation (DUSP6) in the brain” value in the experiment with DUSP6 is reported as “significantly decreased”. In addition, in the experiment with WT NRAS-BRAF complex, the “Selectivity Index (IC50 ratio) WT NRAS/KRAS G12V” value was found to be 5.0.

As usually defined, the IC50 is the concentration that inhibits the measured activity by half. Read a high IC50 as a need for much substance.
